Columns and labels:
Type in all cases: binding
panel of 442 kinases [1] = biological target: T1, panel of 442 kinases (Homo sapiens, UniProt Q6PHR2); conditions: kinase ULK3; compound concentration 10 µM
T1 construct: purchased KINOMEscan
T1 sequence (Q6PHR2 1-472): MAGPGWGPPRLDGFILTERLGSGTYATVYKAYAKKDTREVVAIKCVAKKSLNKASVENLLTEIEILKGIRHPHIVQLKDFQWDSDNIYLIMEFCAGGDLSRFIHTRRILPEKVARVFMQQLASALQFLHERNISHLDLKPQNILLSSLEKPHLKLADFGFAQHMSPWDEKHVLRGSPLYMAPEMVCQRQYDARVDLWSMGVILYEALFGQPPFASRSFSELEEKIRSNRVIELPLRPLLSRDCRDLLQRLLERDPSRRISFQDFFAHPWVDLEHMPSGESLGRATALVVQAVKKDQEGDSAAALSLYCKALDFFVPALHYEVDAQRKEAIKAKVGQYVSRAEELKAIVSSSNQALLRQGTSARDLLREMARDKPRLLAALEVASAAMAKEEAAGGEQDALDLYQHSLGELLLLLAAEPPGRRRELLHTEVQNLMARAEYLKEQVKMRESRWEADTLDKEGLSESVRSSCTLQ
Description: (§1) We assessed the selectivity of members of this scaffold using the KINOMEscan methodology across a near comprehensive panel of 442 kinases [[18,27]].

panel of 442 kinases [2] = biological target: T2, panel of 442 kinases (Homo sapiens, UniProt P54764); conditions: Compound Concentration 10 µM
T2 construct: purchased KINOMEscan
T2 sequence (P54764 20-986): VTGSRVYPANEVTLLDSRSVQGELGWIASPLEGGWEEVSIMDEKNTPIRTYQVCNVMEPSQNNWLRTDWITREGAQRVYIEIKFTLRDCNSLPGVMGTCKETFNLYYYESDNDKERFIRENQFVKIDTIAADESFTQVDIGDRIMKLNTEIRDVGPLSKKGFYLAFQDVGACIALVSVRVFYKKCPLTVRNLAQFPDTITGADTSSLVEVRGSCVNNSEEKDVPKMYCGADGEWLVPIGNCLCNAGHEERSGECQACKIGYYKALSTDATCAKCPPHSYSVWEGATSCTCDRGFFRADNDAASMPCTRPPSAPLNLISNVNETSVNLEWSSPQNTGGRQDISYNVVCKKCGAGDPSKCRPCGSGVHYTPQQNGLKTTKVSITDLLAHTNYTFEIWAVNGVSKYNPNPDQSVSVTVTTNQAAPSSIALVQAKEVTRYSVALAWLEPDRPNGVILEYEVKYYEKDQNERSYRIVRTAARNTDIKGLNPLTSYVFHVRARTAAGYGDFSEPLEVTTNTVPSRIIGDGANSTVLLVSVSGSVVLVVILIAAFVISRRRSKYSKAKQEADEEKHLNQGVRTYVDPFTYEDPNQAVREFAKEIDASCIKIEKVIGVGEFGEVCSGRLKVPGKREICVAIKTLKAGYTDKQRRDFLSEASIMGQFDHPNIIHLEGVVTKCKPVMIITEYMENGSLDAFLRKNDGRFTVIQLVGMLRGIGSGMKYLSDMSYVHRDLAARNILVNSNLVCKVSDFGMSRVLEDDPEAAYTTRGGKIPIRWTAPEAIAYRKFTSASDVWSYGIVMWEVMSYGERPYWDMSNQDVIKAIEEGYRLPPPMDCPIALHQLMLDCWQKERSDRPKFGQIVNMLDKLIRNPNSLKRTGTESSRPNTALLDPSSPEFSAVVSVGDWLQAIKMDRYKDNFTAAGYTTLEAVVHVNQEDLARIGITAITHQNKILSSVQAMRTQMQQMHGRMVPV
Description: as §1

panel of 442 kinases [3] = biological target: T3, panel of 442 kinases (Homo sapiens, UniProt P80192); conditions: Compound Concentration 10 µM
T3 construct: purchased KINOMEscan
T3 sequence (P80192 whole entry): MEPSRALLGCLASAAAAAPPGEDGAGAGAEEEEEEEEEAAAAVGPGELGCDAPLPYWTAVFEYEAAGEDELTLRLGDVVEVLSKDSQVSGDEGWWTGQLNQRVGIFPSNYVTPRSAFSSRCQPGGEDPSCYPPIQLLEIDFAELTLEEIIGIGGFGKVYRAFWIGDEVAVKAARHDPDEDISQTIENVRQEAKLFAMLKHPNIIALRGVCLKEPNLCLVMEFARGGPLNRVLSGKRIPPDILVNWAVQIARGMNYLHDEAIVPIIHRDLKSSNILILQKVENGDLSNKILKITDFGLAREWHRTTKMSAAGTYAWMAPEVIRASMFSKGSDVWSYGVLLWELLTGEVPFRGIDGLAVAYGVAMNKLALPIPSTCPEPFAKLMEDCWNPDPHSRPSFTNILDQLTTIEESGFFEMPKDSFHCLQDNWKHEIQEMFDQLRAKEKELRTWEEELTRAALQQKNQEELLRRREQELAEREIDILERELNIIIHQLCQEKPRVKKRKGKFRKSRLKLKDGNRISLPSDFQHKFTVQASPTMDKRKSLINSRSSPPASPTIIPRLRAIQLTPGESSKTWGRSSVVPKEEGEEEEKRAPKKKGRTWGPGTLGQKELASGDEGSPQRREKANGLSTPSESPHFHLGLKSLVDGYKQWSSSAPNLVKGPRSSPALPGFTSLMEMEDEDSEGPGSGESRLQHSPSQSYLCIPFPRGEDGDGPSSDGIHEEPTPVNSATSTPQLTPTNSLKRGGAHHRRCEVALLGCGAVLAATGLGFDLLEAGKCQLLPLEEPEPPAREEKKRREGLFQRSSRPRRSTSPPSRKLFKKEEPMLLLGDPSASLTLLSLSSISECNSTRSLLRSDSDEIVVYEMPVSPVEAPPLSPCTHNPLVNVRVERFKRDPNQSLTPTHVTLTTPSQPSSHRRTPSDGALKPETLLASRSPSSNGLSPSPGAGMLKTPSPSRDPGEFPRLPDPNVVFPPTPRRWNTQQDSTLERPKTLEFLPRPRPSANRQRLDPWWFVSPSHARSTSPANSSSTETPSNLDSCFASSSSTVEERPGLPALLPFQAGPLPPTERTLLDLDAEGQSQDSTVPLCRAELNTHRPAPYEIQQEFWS
Description: as §1

Row | Structure (SMILES) | % Ctrl, ULK3 (panel of 442 kinases [1]) [% Ctrl] | KINOMEscan: EPHA4 (panel of 442 kinases [2]) | KINOMEscan: MLK1 (panel of 442 kinases [3])
1 | CCOc1cc(C(=O)N2CCC(N3CCN(C)CC3)CC2)ccc1Nc1ncc2c(n1)N(C1CCCC1)c1ccccc1C(=O)N2C [Compound 26] | 100 | 100 | 100
2 | COc1cc(C(=O)N2CCC(N3CCN(C)CC3)CC2)ccc1Nc1ncc2c(n1)N1CCc3cccc(c31)C(=O)N2C [Compound 24] | 100 | 97 | 85
3 | COc1cc(C(=O)N2CCC(N3CCN(C)CC3)CC2)ccc1Nc1ncc2c(n1)N(C)c1ccccc1C(=O)N2C [15 (LRRK2-IN-1)] | 100 | 89 | 93
4 | COc1cc(C(=O)N2CCC(N3CCN(C)CC3)CC2)ccc1Nc1ncc2c(n1)N(C1CCCC1)c1ccccc1C(=O)N2C [Compound 25, 11-cyclopentyl-2-((2-methoxy-4-(4-(4-methylpiperazin-1-yl)piperidine-1-carbonyl)phenyl)amino)-5-methyl-5H-benzo[e]pyrimido[5,4-b][1,4]diazepin-6(11H)-one] | 100 | 100 | 100
